≈ marks a conversion by molar mass, not a printed value. Counter-ions that a name gives are not always drawn. Like-named read-outs stand apart in the source and are kept apart here.
Tests used:
[1] = Effect of different alkaline agents on paracetamol absorption in vivo (5 subject crossover studies, plasma paracetamol); settings: human, oral, 1000 mg, two tablets each 500 mg paracetamol, fasted, read-out: Median AUC20 (converted)
Method: In a series of multiple 5 subject crossover studies, the effect of a range of different formulations containing different alkali agents on in vivo absorption were investigated. Subjects were fasted overnight and dosed with two tablets each containing 500 mg paracetamol. Plasma levels of paracetamol were monitored for 8 hours, with 10 samples taken in the first hour.

[2] = Dissolution, USP dissolution apparatus 2, 900 mL 0.0033 N hydrochloric acid, 0 rpm, 37° C.; assay type: physicochemical; settings: basic and amphoteric drugs in formulations according to the invention (Table 32), 0 rpm
Method: (§1) Testing was conducted in a dissolution medium containing 900 mL 0.0033 N hydrochloric acid (HCl) at 37° C. which discriminates better between fast dissolving formulations than more acidic dissolution media where the effect of high acid concentration tends to mask formulation effects on dissolution. 900 mL of this medium contains the absolute amount of acid estimated to be present in the gastric contents in vivo, namely 3 millimoles.
Dissolution results without stirring may be of in vivo significance in conditions where there is gut stasis or reduced gastric activity.
(§2) Testing at was conducted at a stirring speed of 30 rpm and also at 0 rpm which provides more discrimination between formulations. To achieve maximum dissolution, the stirring speed was increased to 250 rpm for 10 minutes after 20 minutes for measurements at 30 rpm, and after 60 minutes for measurements at 0 rpm.
(§3) Unless otherwise stated, drug concentrations were measured using a Varian Cary 50 UV-Vis Spectrophotometer set at an appropriate wavelength using flow through cells for automatic continuous sampling. For each drug, the optimal wavelength was selected after running UV scans in the dissolution medium.

[3] = Dissolution, USP dissolution apparatus 2, 900 mL 0.0033 N hydrochloric acid, 30 rpm, 37° C.; assay type: physicochemical; settings: basic and amphoteric drugs in formulations according to the invention (Table 32)
Method: as §1, §2, §3
A suitable C18 column and guard column were used. Results were processed using Waters Empower software.

CC(=O)Nc1ccc(O)cc1 [Paracetamol]
Effect of ↑ pH on solubility (Solubility in water): ⇄
Volume of water (mL) to dissolve dose (Solubility in water; dose per tablet as in label): 36 mL
water needed for total dissolution of the dose (Solubility in water; doses of Example 33 (tramadol hydrochloride 37.5 mg, paracetamol 325 mg)): around 27 mL
solubility (Solubility in water; water): ~14 mg/mL (≈ 92.6 mM)
AUC ([1]; Magnesium carbonate, dose 150 mg): 1140 ng·h/mL
AUC ([1]; Magnesium carbonate, dose 300 mg): 2010 ng·h/mL
AUC ([1]; Sodium bicarbonate, dose 200 mg): 3810 ng·h/mL
AUC ([1]; Sodium bicarbonate, dose 400 mg): 4760 ng·h/mL
AUC ([1]; Sodium bicarbonate, dose 800 mg): 4400 ng·h/mL
AUC ([1]; Sodium bicarbonate, dose 1200 mg): 2680 ng·h/mL
AUC ([1]; alkaline agent None, dose 0 mg): 1590 ng·h/mL

COc1cccc(C2(O)CCCCC2CN(C)C)c1 (centres unmarked) [Tramadol hydrochloride]
Volume (mL) of water to dissolve dose (Solubility in water): 1.3 mL
water needed for total dissolution of the dose (Solubility in water): around 1 mL
% dissolved in 900 mL 0.0033 N HCl ([2]; 180 sec): 87%
% dissolved in 900 mL 0.0033 N HCl ([2]; 300 sec): 95%
% dissolved in 900 mL 0.0033 N HCl ([2]; 15 minutes): 99%
% dissolved in 900 mL 0.0033 N HCl ([2]; 30 minutes): 100%
solubility (physchem): ~30 mg/mL
solubility (physchem; water): ~30 mg/mL
% dissolved in 900 mL 0.0033 N HCl ([3]; 180 sec, 30 rpm): 100%
% dissolved in 900 mL 0.0033 N HCl ([3]; 300 sec, 30 rpm): 100%
% dissolved in 900 mL 0.0033 N HCl ([3]; 15 minutes, 30 rpm): 100%
% dissolved in 900 mL 0.0033 N HCl ([3]; 30 minutes, 30 rpm (increased to 250 rpm after 20 minutes)): 100%
